According to patent publication US7250435B2, “Acylsemicarbazides as cyclin dependent kinase inhibitors useful as anti-cancer and anti-proliferative agents” (Bristol-Myers Squibb Pharma Company, priority 1999, dated 2007):

Row | melting point | Structure (SMILES)
1 | > 300 °C | COc1ccc(-c2[nH]nc3c2C(=O)c2c(NC(=O)NNC(=O)c4ccc(O)c(O)c4)cccc2-3)cc1 [Example CLXI, 3-(4-methoxyphenyl)-5-(2-(3,4-dihydroxybenzoyl)hydrazinecarboxamido)indeno[1,2-c]pyrazol-4-one]
2 | 257 °C | COc1ccc(-c2[nH]nc3c2C(=O)c2c(NC(=O)NNC(=O)c4ccccc4N)cccc2-3)cc1 [Example CLXV, 3-(4-methoxyphenyl)-5-(2-(2-aminobenzoyl)hydrazinecarboxamido)indeno[1,2-c]pyrazol-4-one]
3 | > 300 °C | COc1ccc(-c2[nH]nc3c2C(=O)c2c(NC(=O)NN(C)C)cccc2-3)cc1 [Example LXIV, 3-(4-methoxyphenyl)-5-(dimethylaminocarbamoyl)aminoindeno[1,2-c]pyrazol-4-one]
4 | 258 °C | CN1CCN(CC(=O)Nc2cccc3c2C(=O)c2c-3n[nH]c2-c2ccc(N3CCOCC3)cc2)CC1 [Example LXXXII, 3-(4-(4-morpholinyl)phenyl)-5-((4-methyl-1-piperazinyl)acetamido)indeno[1,2-c]pyrazol-4-one]
5 | 269 °C | CC(=O)Nc1cccc2c1C(=O)c1c-2n[nH]c1-c1cccs1 [Example LXXXIX, 3-(2-thienyl)-5-(acetamido)indeno[1,2-c]pyrazol-4-one]
6 | > 250 °C | CC(=O)Nc1cccc2c1C(=O)c1c-2n[nH]c1C(C)C [Example LXXXVI, 3-(i-propyl)-5-(acetamido)indeno[1,2-c]pyrazol-4-one]
7 | > 250 °C | CC(=O)Nc1cccc2c1C(=O)c1c-2n[nH]c1C(C)(C)C [Example LXXXVIII, 3-(t-butyl)-5-(acetamido)indeno[1,2-c]pyrazol-4-one]
8 | > 300 °C | COc1ccc(-c2[nH]nc3c2C(=O)c2c(NC(=O)NCc4ccc(N)cc4)cccc2-3)cc1 [Example XLIV, 3-(4-methoxyphenyl)-5-(4-aminobenzylcarbamoyl)aminoindeno[1,2-c]pyrazol-4-one]
9 | > 300 °C | COc1ccc(-c2[nH]nc3c2C(=O)c2c(NC(=O)CCNc4ccncc4)cccc2-3)cc1 [Example XXXV, 3-(4-methoxyphenyl)-5-(4-pyridinylaminomethylacetamido)indeno[1,2-c]pyrazol-4-one]
